Experimental data published in ChEMBL document CHEMBL4673231, “Novel isoniazid embedded triazole derivatives: Synthesis, antitubercular and antimicrobial activity evaluation” (Bioorg Med Chem Lett, 2020).
Calls of active or inactive are those of the source. No cut-off for these calls is given here.

Experiments:
Shigella boydii = assay: Antibacterial activity against Shigella boydii assessed as diameter of inhibition zone at 1 mg/ml incubated for 24 hrs by agar well diffusion assay; format: functional
[1] = tested on: Mycobacterium tuberculosis; assay: Antimycobacterial activity against Mycobacterium tuberculosis H37Rv assessed as reduction in microbial growth incubated for 7 days by alamar blue assay; format: functional; details: 168 h, time 7 day
Bacillus cereus = assay: Antibacterial activity against Bacillus cereus assessed as diameter of inhibition zone at 1 mg/ml incubated for 24 hrs by agar well diffusion assay; format: functional
Escherichia coli = assay: Antibacterial activity against Escherichia coli assessed as diameter of inhibition zone at 1 mg/ml incubated for 24 hrs by agar well diffusion assay; format: functional; details: for zone of inhibition at 1000 µg/mL: read-out: DIZ
[2] = Cytotoxicity against mouse RAW264.7 cells assessed as reduction in cell viability at 25 ug/ml incubated for 48 hrs by MTT assay; format: cell-based; details: at 25 µg/mL, read-out: INH
Pseudomonas aeruginosa = assay: Antibacterial activity against Pseudomonas aeruginosa assessed as diameter of inhibition zone at 1 mg/ml incubated for 24 hrs by agar well diffusion assay; format: functional; details: for zone of inhibition at 1000 µg/mL: read-out: DIZ
Staphylococcus aureus = assay: Antibacterial activity against Staphylococcus aureus assessed as diameter of inhibition zone at 1 mg/ml incubated for 24 hrs by agar well diffusion assay; format: functional
Bacillus subtilis = assay: Antibacterial activity against Bacillus subtilis assessed as diameter of inhibition zone at 1 mg/ml incubated for 24 hrs by agar well diffusion assay; format: functional; details: for zone of inhibition at 1000 µg/mL: read-out: DIZ
Salmonella typhi = assay: Antibacterial activity against Salmonella typhi assessed as diameter of inhibition zone at 1 mg/ml incubated for 24 hrs by agar well diffusion assay; format: functional, Salmonella enterica subsp. enterica serovar Typhi; details: for zone of inhibition at 1000 µg/mL: Salmonella enterica, read-out: DIZ; for diameter of the inhibition zone (DIZ): Salmonella enterica subsp. enterica serovar Typhi
Klebsiella aerogenes = assay: Antibacterial activity against Enterobacter aerogenes assessed as diameter of inhibition zone at 1 mg/ml incubated for 24 hrs by agar well diffusion assay; format: functional; details: for zone of inhibition at 1000 µg/mL: read-out: DIZ
Aspergillus niger = assay: Antifungal activity against Aspergillus niger assessed as diameter of inhibition zone at 1 mg/ml incubated for 24 hrs by agar well diffusion assay; format: functional; details: for zone of inhibition at 1000 µg/mL: read-out: DIZ
[3] = tested on: Salmonella enterica subsp. enterica serovar Abony; assay: Antibacterial activity against Salmonella enterica subsp. enterica serovar Abony assessed as diameter of inhibition zone at 1 mg/ml incubated for 24 hrs by agar well diffusion assay; format: functional
Saccharomyces cerevisiae = assay: Antifungal activity against Saccharomyces cerevisiae assessed as diameter of inhibition zone at 1 mg/ml incubated for 24 hrs by agar well diffusion assay; format: functional; details: for zone of inhibition at 1000 µg/mL: read-out: DIZ

Row | SMILES | diameter of the inhibition zone (DIZ) (Shigella boydii) | MIC [1] | diameter of the inhibition zone (DIZ) (Bacillus cereus) | cytotoxicity at 48 h, 25 ug/ml [2] | zone of inhibition at 1000 µg/mL (Pseudomonas aeruginosa) | diameter of the inhibition zone (DIZ) (Staphylococcus aureus) | zone of inhibition at 1000 µg/mL (Salmonella typhi) | zone of inhibition at 1000 µg/mL (Klebsiella aerogenes) | zone of inhibition at 1000 µg/mL (Aspergillus niger) | diameter of the inhibition zone (DIZ) (Saccharomyces cerevisiae) | diameter of the inhibition zone (DIZ) (Escherichia coli) | diameter of the inhibition zone (DIZ) (Bacillus subtilis) | diameter of the inhibition zone (DIZ) (Klebsiella aerogenes) | diameter of the inhibition zone (DIZ) [3] | diameter of the inhibition zone (DIZ) (Aspergillus niger) | also measured
1 | COc1cccc(-n2cc(COc3ccc([N+](=O)[O-])cc3/C=N/NC(=O)c3ccncc3)nn2)c1 | inactive | 0.78 µg/mL | inactive | 23.9% | 10 mm | inactive | 12 mm | 6 mm | 13 mm | inactive |  |  |  |  |  | zone of inhibition at 1000 µg/mL (Escherichia coli): 9 mm; zone of inhibition at 1000 µg/mL (Bacillus subtilis): 12 mm; zone of inhibition at 1000 µg/mL ([3]; read-out: DIZ): 8 mm
2 | O=C(N/N=C/c1cc([N+](=O)[O-])ccc1OCc1cn(-c2ccc(Cl)cc2)nn1)c1ccncc1 | inactive | 25 µg/mL | inactive |  | 15 mm | inactive | 13 mm |  | 16 mm |  | inactive | inactive | inactive | inactive |  | zone of inhibition at 1000 µg/mL (Saccharomyces cerevisiae): 10 mm
3 | CC[C@@H](CO)NCCN[C@@H](CC)CO [ETHAMBUTOL] |  | 3.12 µg/mL |  |  |  |  |  |  |  |  |  |  |  |  |  | 
4 | O=C(N/N=C/c1cc([N+](=O)[O-])ccc1OCc1cn(-c2ccccc2F)nn1)c1ccncc1 | inactive | 12.5 µg/mL | inactive | 19.3% | 13 mm | inactive | 10 mm | 10 mm |  | inactive | inactive |  |  | inactive | inactive | zone of inhibition at 1000 µg/mL (Bacillus subtilis): 11 mm
5 | Cc1cccc(-n2cc(COc3ccc([N+](=O)[O-])cc3/C=N/NC(=O)c3ccncc3)nn2)c1 | inactive | 12.5 µg/mL |  | 23.2% | 12 mm |  | 10 mm | 8 mm | 8 mm | inactive | inactive |  |  | inactive |  | zone of inhibition at 1000 µg/mL (Bacillus cereus; read-out: DIZ): 13 mm; zone of inhibition at 1000 µg/mL (Staphylococcus aureus; read-out: DIZ): 13 mm; zone of inhibition at 1000 µg/mL (Bacillus subtilis): 10 mm
6 | O=C(N/N=C/c1cc([N+](=O)[O-])ccc1OCc1cn(-c2ccccc2)nn1)c1ccncc1 | inactive | 0.78 µg/mL | inactive | 25.7% | 13 mm | inactive |  | 14 mm |  |  |  | inactive |  | inactive | inactive | zone of inhibition at 1000 µg/mL (Escherichia coli): 12 mm; diameter of the inhibition zone (DIZ) (Salmonella typhi): inactive; zone of inhibition at 1000 µg/mL (Saccharomyces cerevisiae): 10 mm
7 | Cc1ccc([N+](=O)[O-])cc1-n1cc(COc2ccc([N+](=O)[O-])cc2/C=N/NC(=O)c2ccncc2)nn1 | inactive | 0.78 µg/mL | inactive | 23.9% | 9 mm | inactive |  |  | 13 mm | inactive |  | inactive | inactive | inactive |  | zone of inhibition at 1000 µg/mL (Escherichia coli): 12 mm; diameter of the inhibition zone (DIZ) (Salmonella typhi): inactive
8 | O=C(O)c1cn(C2CC2)c2cc(N3CCNCC3)c(F)cc2c1=O [CIPROFLOXACIN] |  | 1.56 µg/mL |  |  |  |  |  |  |  |  |  |  |  |  |  | 
9 | Cc1cc(C)c(-n2cc(COc3ccc([N+](=O)[O-])cc3/C=N/NC(=O)c3ccncc3)nn2)c(C)c1 | inactive | 0.78 µg/mL | inactive | 27.7% |  | inactive | 10 mm |  |  | inactive | inactive | inactive | inactive | inactive | inactive | diameter of the inhibition zone (DIZ) (Pseudomonas aeruginosa): inactive
10 | O=C(N/N=C/c1cc([N+](=O)[O-])ccc1OCc1cn(-c2cccc([N+](=O)[O-])c2)nn1)c1ccncc1 | inactive | 0.78 µg/mL | inactive | 22.7% |  | inactive |  |  |  | inactive | inactive | inactive | inactive | inactive | inactive | diameter of the inhibition zone (DIZ) (Pseudomonas aeruginosa): inactive; diameter of the inhibition zone (DIZ) (Salmonella typhi): inactive
11 | Cc1ccc(-n2cc(COc3ccc([N+](=O)[O-])cc3/C=N/NC(=O)c3ccncc3)nn2)c(C)c1 | inactive | 3.12 µg/mL | inactive | 17.6% |  | inactive | 11 mm |  |  | inactive | inactive | inactive | inactive | inactive | inactive | diameter of the inhibition zone (DIZ) (Pseudomonas aeruginosa): inactive
12 | O=C(N/N=C/c1cc([N+](=O)[O-])ccc1OCc1cn(-c2ccc(Br)cc2)nn1)c1ccncc1 | inactive | 12.5 µg/mL | inactive | 19% |  | inactive | 10 mm | 12 mm |  |  | inactive | inactive |  | inactive | inactive | diameter of the inhibition zone (DIZ) (Pseudomonas aeruginosa): inactive; zone of inhibition at 1000 µg/mL (Saccharomyces cerevisiae): 12 mm
13 | NNC(=O)c1ccncc1 [ISONIAZID] |  | 0.1 µg/mL |  |  |  |  |  |  |  |  |  |  |  |  |  | 
14 | OC(Cn1cncn1)(Cn1cncn1)c1ccc(F)cc1F [FLUCONAZOLE] |  |  |  |  |  |  |  |  | 30 mm |  |  |  |  |  |  | zone of inhibition at 1000 µg/mL (Saccharomyces cerevisiae): 30 mm
15 | CO[C@H]1/C=C/O[C@@]2(C)Oc3c(C)c(O)c4c(O)c(c(/C=N/N5CCN(C)CC5)c(O)c4c3C2=O)NC(=O)/C(C)=C\C=C\[C@H](C)[C@H](O)[C@@H](C)[C@@H](O)[C@@H](C)[C@H](OC(C)=O)[C@@H]1C [RIFAMPIN] |  | 0.2 µg/mL |  |  |  |  |  |  |  |  |  |  |  |  |  | 
